Three compounds from patent US12180195B1, “6-(6-bromo-2-oxo-2H-chromen-3-yl)-4-(2,4-dichlorophenyl)-2-alkoxynicotinonitrile as an antimicrobial compound” (KING FAISAL UNIVERSITY, priority 2023, dated 2024) can be followed below.

Holding throughout (format): cell-based
In assay [1] the test system is Bacillus Cereus. Description: Agar plate disc-diffusion, antibacterial inhibition zone. As to conditions: nutrient agar, 37° C., 48 hours, DMSO zone subtracted. As to the method: (§1) The agar plate disc-diffusion method was applied. Sterilized filter papers (6 mm in diameter) were wetted with 10 μL of a solution of compounds 6-(6-bromo-2-oxo-2H-chromen-3-yl)-4-(2,4-dichlorophenyl)-2-ethoxynicotinonitrile 1 or 6-(6-bromo-2-oxo-2H-chromen-3-yl)-4-(2,4-dichlorophenyl)-2-methoxynicotinonitrile 2 to be tested, containing […], and the discs were allowed to air dry. The discs were then placed onto the surface of agar plates (nutrient agar for bacteria and Sabouraud's dextrose agar for fungi) seeded with the test organism. Each plate contained 15 mL of the agar medium, previously seeded with 0.2 mL of the broth culture of each organism pregrown for 18 hours. The plates were incubated at 37° C. for 48 hours, and 72 hours for fungi. The inhibition zones were measured in mm. Discs impregnated with DMSO were used as a control, and its inhibition zone was subtracted from the tested compound actual inhibition zone.
(§2) The results of the antimicrobial testing can be observed in Tables 1 and 2, below, using ciprofloxacin as a reference.
(In general: Agar diffusion results depend on both activity and mobility in agar.)

The test system of assay [2] is Escherichia coli. The assay is described as above. Conditions: nutrient agar, 37° C., 48 hours, DMSO zone subtracted. On the procedure:
as §1, §2

Assay [3] deals with Pseudomonas aeruginosa. Described as above. As to conditions: nutrient agar, 37° C., 48 hours, DMSO zone subtracted. On the procedure: as §1, §2
Assay [4] has as its system Staphylococcus aureus. The assay is described as above. As to conditions: nutrient agar, 37° C., 48 hours, DMSO zone subtracted. As to the method:
as §1, §2

For assay [5], the system named is Aspergillus flavus. As to the kind of experiment: Agar plate disc-diffusion, antifungal inhibition zone. Conditions: Sabouraud's dextrose agar, 72 hours, DMSO zone subtracted. As to the method:
as §1, §2

For assay [6], the system named is Chrysosporium keratinophilum. The assay is described as above. Conditions: Sabouraud's dextrose agar, 72 hours, DMSO zone subtracted. As to the method:
as §1, §2

The test system of assay [7] is different microbes. Description: Antimicrobial testing, overall statement in words. As to conditions: summary of Tables 1 and 2, bacteria and fungi. On the procedure:
as §1
Their antibacterial activity was screened against gram positive bacteria namely Bacillus cereus and Staphylococcus aureus and gram-negative bacterial strains namely Pseudomonas aeruginosa and Escherichia coli, while their antifungal activity was screened against Aspergillus flavus and Chrysosporium keratinophilum.

Where [8] appears, read: A = concentration of comp. = 10,000 μL.
Where [9] appears, read: B = concentration of comp. = 30,000 μL.
The mark [10] stands for this setting: C = concentration of comp. = 50,000 μL.

`O=C(O)c1cn(C2CC2)c2cc(N3CCNCC3)c(F)cc2c1=O` [Cip., ciprofloxacin, reference compound]: the inhibition zone in assay [1] (setting [8]) was 29 mm; in assay [1] (setting [9]), 30 mm; in assay [1] (setting [10]) it was 42 mm; in assay [2] (setting [8]) it was 30 mm; in assay [2] (setting [9]), 39 mm; in assay [2] (setting [10]) it was 60 mm. For the same compound, the inhibition zone was 29 mm in assay [3] (setting [8]); 30 mm in assay [3] (setting [9]); 53 mm in assay [3] (setting [10]); 43 mm in assay [4] (setting [8]); 44 mm in assay [4] (setting [9]); 53 mm in assay [4] (setting [10]). Besides, the inhibition zone in assay [5] (setting [8]) amounted to 29 mm; in assay [5] (setting [9]), 30 mm; in assay [5] (setting [10]) it was 42 mm; in assay [6] (setting [8]), 29 mm; in assay [6] (setting [9]), 30 mm; in assay [6] (setting [10]), 53 mm.
As for `CCOc1nc(-c2cc3cc(Br)ccc3oc2=O)cc(-c2ccc(Cl)cc2Cl)c1C#N` [Compound 1, 6-(6-bromo-2-oxo-2H-chromen-3-yl)-4-(2,4-dichlorophenyl)-2-ethoxynicotinonitrile], the inhibition zone in assay [1] (setting [8]) is 26 mm; in assay [1] (setting [9]), 27 mm; in assay [1] (setting [10]), 38 mm; in assay [2] (setting [8]), 30 mm; in assay [2] (setting [9]), 38 mm; in assay [2] (setting [10]), 54 mm. Moreover, the inhibition zone in assay [3] (setting [8]) worked out at 24 mm; in assay [3] (setting [9]) it was 31 mm; in assay [3] (setting [10]), 42 mm; in assay [4] (setting [8]), 13 mm; in assay [4] (setting [9]), 20 mm; in assay [4] (setting [10]) it was 27 mm. Moreover, the inhibition zone came out at 26 mm in assay [5] (setting [8]); 28 mm in assay [5] (setting [9]); 39 mm in assay [5] (setting [10]); 22 mm in assay [6] (setting [8]); 33 mm in assay [6] (setting [9]); 39 mm in assay [6] (setting [10]). The “antimicrobial activity (in words)” value in assay [7] was “high antimicrobial activities”.
For `COc1nc(-c2cc3cc(Br)ccc3oc2=O)cc(-c2ccc(Cl)cc2Cl)c1C#N` [Compound 2, 6-(6-bromo-2-oxo-2H-chromen-3-yl)-4-(2,4-dichlorophenyl)-2-methoxynicotinonitrile], the inhibition zone came out at 27 mm in assay [1] (setting [8]); 28 mm in assay [1] (setting [9]); 40 mm in assay [1] (setting [10]); 28 mm in assay [2] (setting [8]); 37 mm in assay [2] (setting [9]); 49 mm in assay [2] (setting [10]). Also, the inhibition zone is 24 mm in assay [3] (setting [8]); 27 mm in assay [3] (setting [9]); 42 mm in assay [3] (setting [10]); 14 mm in assay [4] (setting [8]); 21 mm in assay [4] (setting [9]); 25 mm in assay [4] (setting [10]). The inhibition zone in assay [5] (setting [8]) is 17 mm; in assay [5] (setting [9]), 21 mm; in assay [5] (setting [10]) it was 29 mm; in assay [6] (setting [8]), 28 mm; in assay [6] (setting [9]), 29 mm; in assay [6] (setting [10]) it was 46 mm. Also, the “antimicrobial activity (in words)” value in assay [7] was “high antimicrobial activities”.
